Reference: patent publication US10081624B2, “Heterocyclic compound” (Takeda Pharmaceutical Company Limited, priority 2014, dated 2018)

Columns and labels:
HDAC6 enzyme = target: T1, HDAC6 enzyme (Homo sapiens, UniProt Q9UBN7); test: HDAC6 enzyme inhibitory assay (HDAC-Glo I/II Assay kit); assay type: biochemical; settings: 1 μM test compound; for inhibition at 1 µM: read-out: HDAC6 inhibitory rate (%) (1 μM)
T1 construct: prepared by transducing full length HDAC1 and HDAC6 genes into Sf-9 insect cells; GST; purchased SignalChem; host or cells: Sf-9 insect cells
T1 sequence (Q9UBN7 1-1215): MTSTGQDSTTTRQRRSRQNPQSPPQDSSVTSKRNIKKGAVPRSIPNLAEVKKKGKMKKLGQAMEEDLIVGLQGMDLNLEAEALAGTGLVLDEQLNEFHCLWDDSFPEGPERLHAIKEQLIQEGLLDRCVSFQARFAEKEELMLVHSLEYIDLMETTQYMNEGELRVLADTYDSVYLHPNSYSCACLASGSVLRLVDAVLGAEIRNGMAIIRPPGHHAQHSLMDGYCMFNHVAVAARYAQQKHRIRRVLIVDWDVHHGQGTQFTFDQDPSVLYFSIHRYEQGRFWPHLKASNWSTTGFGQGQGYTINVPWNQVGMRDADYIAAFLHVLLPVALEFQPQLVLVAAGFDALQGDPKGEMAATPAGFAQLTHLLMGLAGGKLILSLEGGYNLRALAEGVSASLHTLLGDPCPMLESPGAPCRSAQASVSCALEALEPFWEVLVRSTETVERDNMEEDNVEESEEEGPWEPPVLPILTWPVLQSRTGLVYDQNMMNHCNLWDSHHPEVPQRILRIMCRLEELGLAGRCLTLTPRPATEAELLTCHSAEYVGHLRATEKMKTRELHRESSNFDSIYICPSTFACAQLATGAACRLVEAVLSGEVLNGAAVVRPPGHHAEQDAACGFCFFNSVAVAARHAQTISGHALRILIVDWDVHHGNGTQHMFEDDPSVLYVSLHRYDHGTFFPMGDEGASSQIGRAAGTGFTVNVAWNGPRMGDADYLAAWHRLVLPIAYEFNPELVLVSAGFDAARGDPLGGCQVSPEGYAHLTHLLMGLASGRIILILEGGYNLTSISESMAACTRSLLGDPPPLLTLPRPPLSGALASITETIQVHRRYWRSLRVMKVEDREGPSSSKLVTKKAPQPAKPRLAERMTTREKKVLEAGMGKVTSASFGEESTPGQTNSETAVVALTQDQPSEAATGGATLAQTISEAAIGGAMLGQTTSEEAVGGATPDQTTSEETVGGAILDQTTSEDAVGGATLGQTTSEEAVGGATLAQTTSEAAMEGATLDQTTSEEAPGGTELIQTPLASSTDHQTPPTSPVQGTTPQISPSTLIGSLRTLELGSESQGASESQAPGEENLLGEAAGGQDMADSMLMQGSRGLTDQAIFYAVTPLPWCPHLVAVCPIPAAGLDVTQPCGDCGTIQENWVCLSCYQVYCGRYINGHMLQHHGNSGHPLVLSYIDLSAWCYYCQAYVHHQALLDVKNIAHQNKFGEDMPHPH
How it was run: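 Luminescent HDAC-Glo I/II read-out after 20 min room-temperature reaction with substrate-developer, following a 60 min room-temperature enzyme–compound preincubation. Enzymes: full-length HDAC1 or HDAC6 from Sf-9 cells, GST-purified; buffer pH 7.5 Tris with NaCl, glutathione, 0.01% Tween-20. No-enzyme wells defined 100% inhibition.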

HDAC1 enzyme = target: T2, HDAC1 enzyme (Homo sapiens, UniProt Q13547); test: HDAC1 enzyme inhibitory assay (HDAC-Glo I/II Assay kit); assay type: biochemical; settings: 1 μM test compound; for inhibition at 1 µM: read-out: HDAC1 inhibitory rate (%) (1 μM)
T2 construct: prepared by transducing full length HDAC1 and HDAC6 genes into Sf-9 insect cells; GST; purchased SignalChem; host or cells: Sf-9 insect cells
Method: HDAC1 enzyme and HDAC6 enzyme each prepared by transducing full length HDAC1 and HDAC6 genes into Sf-9 insect cells and purifying by GST affinity column were purchased from SignalChem. Using these enzymes, HDAC1 and/or HDAC6 enzyme inhibitory activities of the compound of the present invention were evaluated. Enzymes were used after preserved at −70° C. HDAC1 or HDAC6 enzyme inhibitory activity of the compound of the present invention was measured using HDAC-Glo™ I/II Assay kit (Promega) according to the following experimental method. The test compound diluted with assay buffer (24 mM Tris-HCl (pH 7.5), 1 mM MgCl2, 0.35 mM KCl, 135 mM NaCl, 0.6 mM Glutathione, 0.01% Tween-20) was added to a 384-well plate by each 2 μL. Then, HDAC1 or HDAC6 enzyme solution diluted with assay buffer was added thereto by each 4 μL, and the plate was incubated at room temperature for 60 min. After incubated, HDAC substrate-Developer solution prepared according to Promega protocol attached to the assay kit was added to the 384-well plate by each 2 μL, and the enzyme reaction was started. After reacting at room temperature for 20 min, luminescence level was measured using plate reader Envision (PerkinElmer). The inhibitory activity of each compound was calculated as a relative activity value when luminescence level in wells without enzyme is considered as 100% inhibition.

T2 sequence (Q13547 whole entry): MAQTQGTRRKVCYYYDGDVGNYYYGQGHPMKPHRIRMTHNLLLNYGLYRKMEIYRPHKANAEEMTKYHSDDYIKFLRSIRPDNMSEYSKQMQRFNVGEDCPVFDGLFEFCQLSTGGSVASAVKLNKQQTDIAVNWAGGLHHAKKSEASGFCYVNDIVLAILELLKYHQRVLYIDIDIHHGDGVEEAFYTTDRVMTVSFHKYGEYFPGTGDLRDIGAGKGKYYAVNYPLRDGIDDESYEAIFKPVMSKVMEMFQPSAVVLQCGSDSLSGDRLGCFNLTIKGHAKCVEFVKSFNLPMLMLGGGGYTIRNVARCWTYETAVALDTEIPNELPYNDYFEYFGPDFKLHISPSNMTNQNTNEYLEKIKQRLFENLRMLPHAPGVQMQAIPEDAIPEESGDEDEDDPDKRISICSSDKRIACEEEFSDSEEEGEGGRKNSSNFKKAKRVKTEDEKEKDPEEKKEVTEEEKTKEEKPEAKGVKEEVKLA

Row | inhibition at 1 µM (HDAC6 enzyme) [%] | inhibition at 1 µM (HDAC1 enzyme) [%] | HDAC6 inhibitory rate (%) (1 μM) (HDAC6 enzyme; 1 µM) | HDAC6 inhibitory rate (%) (1 μM) (HDAC6 enzyme) | HDAC1 inhibitory rate (%) (1 μM) (HDAC1 enzyme; 1 µM) | SMILES
1 | 36 | -1 |  |  |  | Cc1cc(C(=O)NCC2COCCN2C(=O)c2ccccc2)ccc1-c1noc(C(F)(F)F)n1 (stereo not shown) [Example 179, N-((4-benzoylmorpholin-3-yl)methyl)-3-methyl-4-(5-(trifluoromethyl)-1,2,4-oxadiazol-3-yl)benzamide]
2 | 100 | 32 |  |  |  | O=C(NC[C@H]1COCCN1C(=O)c1ccnn1CCO)c1ccc(-c2noc(C(F)(F)F)n2)cc1 [Example 296, N-(((3S)-4-((1-(2-hydroxyethyl)-1H-pyrazol-5-yl)carbonyl)morpholin-3-yl)methyl)-4-(5-(trifluoromethyl)-1,2,4-oxadiazol-3-yl)benzamide]
3 | 99 | 14 |  |  |  | O=C(NCC1COCCN1C(=O)c1cccc(C(F)(F)F)c1)c1ccc(-c2noc(C(F)(F)F)n2)cc1 (stereo not shown) [Example 27, N-((4-(3-(trifluoromethyl)benzoyl)morpholin-3-yl)methyl)-4-(5-(trifluoromethyl)-1,2,4-oxadiazol-3-yl)benzamide]
4 | 102 | 20 |  |  |  | O=C(NCC1COCCN1C(=O)C1CCCCC1)c1ccc(-c2noc(C(F)(F)F)n2)cc1 (stereo not shown) [Example 25, N-((4-(cyclohexylcarbonyl)morpholin-3-yl)methyl)-4-(5-(trifluoromethyl)-1,2,4-oxadiazol-3-yl)benzamide]
5 | 96 | 14 |  |  |  | Cc1ccc(C(=O)N2CCOC[C@H]2CNC(=O)c2ccc(-c3noc(C(F)(F)F)n3)cc2)s1 [Example 144, N-(((3R)-4-((5-methyl-2-thienyl)carbonyl)morpholin-3-yl)methyl)-4-(5-(trifluoromethyl)-1,2,4-oxadiazol-3-yl)benzamide]
6 | 97 | 16 |  |  |  | O=C(NCC1COCCN1C(=O)c1cc(Cl)cc(Cl)c1)c1ccc(-c2noc(C(F)(F)F)n2)cc1 (stereo in doubt) [Example 112, N-(((3R)-4-(3,5-dichlorobenzoyl)morpholin-3-yl)methyl)-4-(5-(trifluoromethyl)-1,2,4-oxadiazol-3-yl)benzamide]
7 | 97 | 6 |  |  |  | O=C(NCC1COCCN1C(=O)N1CCCC1)c1ccc(-c2noc(C(F)(F)F)n2)cc1 (stereo in doubt) [Example 100, N-(((3S)-4-(pyrrolidin-1-ylcarbonyl)morpholin-3-yl)methyl)-4-(5-(trifluoromethyl)-1,2,4-oxadiazol-3-yl)benzamide]

Further lines, the molecule ahead of its results:

Row | SMILES | inhibition at 1 µM (HDAC6 enzyme) [%] | inhibition at 1 µM (HDAC1 enzyme) [%] | HDAC6 inhibitory rate (%) (1 μM) (HDAC6 enzyme; 1 µM) | HDAC6 inhibitory rate (%) (1 μM) (HDAC6 enzyme) | HDAC1 inhibitory rate (%) (1 μM) (HDAC1 enzyme; 1 µM)
8 | Cc1cccc(C(=O)N2CCOCC2CNC(=O)c2ccc(-c3noc(C(F)(F)F)n3)cc2)c1 (stereo not shown) [Example 10, N-((4-(3-methylbenzoyl)morpholin-3-yl)methyl)-4-(5-(trifluoromethyl)-1,2,4-oxadiazol-3-yl)benzamide] | 104 | 18 |  |  | 
9 | O=C(NC[C@H]1COCCN1C(=O)N1CCCOCC1)c1ccc(-c2noc(C(F)(F)F)n2)cc1 [Example 290, N-(((3S)-4-(1,4-oxazepan-4-ylcarbonyl)morpholin-3-yl)methyl)-4-(5-(trifluoromethyl)-1,2,4-oxadiazol-3-yl)benzamide] | 97 | 3 |  |  | 
10 | N#Cc1ccccc1C(=O)N1CCOC[C@@H]1CNC(=O)c1ccc(-c2noc(C(F)(F)F)n2)cc1 [Example 43, N-(((3S)-4-(2-cyanobenzoyl)morpholin-3-yl)methyl)-4-(5-(trifluoromethyl)-1,2,4-oxadiazol-3-yl)benzamide] |  | 14 | 101 |  | 
11 | O=C(NC[C@H]1COCCN1C(=O)N1CCCCC1CO)c1ccc(-c2noc(C(F)(F)F)n2)cc1 (stereo partly drawn) [Example 304, N-(((3S)-4-((2-(hydroxymethyl)piperidin-1-yl)carbonyl)morpholin-3-yl)methyl)-4-(5-(trifluoromethyl)-1,2,4-oxadiazol-3-yl)benzamide] |  |  |  | 99 | 9
12 | O=C(NCC1COCCN1C(=O)c1ccccc1Cl)c1ccc(-c2noc(C(F)(F)F)n2)cc1 (stereo not shown) [Example 6, N-((4-(2-chlorobenzoyl)morpholin-3-yl)methyl)-4-(5-(trifluoromethyl)-1,2,4-oxadiazol-3-yl)benzamide] | 111 | 22 |  |  | 
13 | CC(C)n1nccc1C(=O)N1CCOC[C@@H]1CNC(=O)c1ccc(-c2noc(C(F)(F)F)n2)cc1 [Example 84, N-(((3S)-4-((1-isopropyl-1H-pyrazol-5-yl)carbonyl)morpholin-3-yl)methyl)-4-(5-(trifluoromethyl)-1,2,4-oxadiazol-3-yl)benzamide] | 98 | 53 |  |  | 
14 | Cc1ncsc1C(=O)N1CCOC[C@@H]1CNC(=O)c1ccc(-c2noc(C(F)(F)F)n2)cc1 [Example 69, N-(((3S)-4-((4-methyl-1,3-thiazol-5-yl)carbonyl)morpholin-3-yl)methyl)-4-(5-(trifluoromethyl)-1,2,4-oxadiazol-3-yl)benzamide] | 100 | 16 |  |  | 
15 | N#Cc1cccc(C(=O)N2CCOCC2CNC(=O)c2ccc(-c3noc(C(F)(F)F)n3)cc2)c1 (stereo not shown) [Example 28, N-((4-(3-cyanobenzoyl)morpholin-3-yl)methyl)-4-(5-(trifluoromethyl)-1,2,4-oxadiazol-3-yl)benzamide] | 98 | 14 |  |  | 
16 | O=C(NC[C@@H]1COCCN1C(=O)C1CC1)c1ccc(-c2noc(C(F)(F)F)n2)cc1 [Example 147, N-(((3R)-4-(cyclopropylcarbonyl)morpholin-3-yl)methyl)-4-(5-(trifluoromethyl)-1,2,4-oxadiazol-3-yl)benzamide] | 94 | 7 |  |  | 
17 | Cc1nc2sccn2c1C(=O)N1CCOC[C@@H]1CNC(=O)c1ccc(-c2noc(C(F)(F)F)n2)cc1 [Example 91, N-(((3S)-4-((6-methylimidazo[2,1-b][1,3]thiazol-5-yl)carbonyl)morpholin-3-yl)methyl)-4-(5-(trifluoromethyl)-1,2,4-oxadiazol-3-yl)benzamide] | 98 | 42 |  |  | 
18 | O=C(NC[C@H]1COCCN1C(=O)c1csnn1)c1ccc(-c2noc(C(F)(F)F)n2)cc1 [Example 70, N-(((3S)-4-(1,2,3-thiadiazol-4-ylcarbonyl)morpholin-3-yl)methyl)-4-(5-(trifluoromethyl)-1,2,4-oxadiazol-3-yl)benzamide] | 95 | 5 |  |  | 
19 | O=C(NCC1COCCN1C(=O)c1ccc2nccn2c1)c1ccc(-c2noc(C(F)(F)F)n2)cc1 (stereo not shown) [Example 20, N-((4-(imidazo[1,2-a]pyridin-6-ylcarbonyl)morpholin-3-yl)methyl)-4-(5-(trifluoromethyl)-1,2,4-oxadiazol-3-yl)benzamide] | 99 | 20 |  |  | 
20 | O=C(NC[C@H]1COCCN1C(=O)C1CCc2ccccc2O1)c1ccc(-c2noc(C(F)(F)F)n2)cc1 (stereo partly drawn) [Example 52, N-(((3S)-4-(3,4-dihydro-2H-chromen-2-ylcarbonyl)morpholin-3-yl)methyl)-4-(5-(trifluoromethyl)-1,2,4-oxadiazol-3-yl)benzamide] | 97 | 18 |  |  | 
